The subject of one data set is DBA/2 mice. The data set is described as follows: Interaction studies in DBA/2 mice: Compound 1 + vehicle, sumatriptan or SB 258741 (audiogenic seizures). The format is in vivo. The conditions noted are these: for Percentage of animal response, Clonic seizures / Percentage of animal response, Tonic extension: 30 min. As for the experimental part:
The experiments are performed according to the method previously described by De Sarro et al. (1984), Eur. J. Pharmacol., 104, 55-60. Compounds of the invention or vehicle (controls) are given intraperitoneally (i.p.) and orally (p.o.) as freshly sonicated solutions in methylcellulose 1%. For the i.p. treatment compounds of the invention are given at doses of 0.1, 0.3, 3, 10, 15, 20 and 30 mg/kg; pretreatment time at 30 and 60 min., For oral treatment, all animals are pretreated either at 30 or 60 min using the compounds of the invention at doses of 0.1, 0.3, 3, 6 and 10 mg/kg p.o. At least 10 mice per dose are used. After pretreatment time, each mouse is placed under a hemispheric perspex dome (58 cm in diameter) and 1 min is allowed for habituation and assessment of locomotor activity. Animals are challenged with a 12-16 kHz sinusoidal tone at 109 dB. Seizure response is assessed by two independent observers. The sound evoked behaviour is coded using the following scale: 0=no response, 1=wild running, 2=clonus, 3=tonic flexor and/or extensor; 4=respiratory arrest, on the basis of the concordant opinion of the observers. […] The maximum response is recorded for each animal. Rectal temperature is recorded immediately prior to auditory testing using an Elektrolaboratoriet thermometer type T.E.3. Behavioral changes are observed during the period between drug administration and auditory testing. In these experiments separate vehicle-treated and drug-treated groups are used at each pretreatment time (15 min-60 min). Percentage of mice showing wild running, clonic or tonic phase and the duration of anticonvulsant activity are compared to control group and statistically analyzed.

Another data set addresses 5-HT1B (Rattus norvegicus, UniProt P28564). Description: Receptor binding 5-HT1B. The conditions noted are these: radioligand [125I]-cyanopindolol, read-out: Ki(nM) Compound 1. As to the method: (§1) Receptor binding data were obtained by CEREP (128, rue Danton, 92500 Rueil-Malmaison, France) or at Solvay Pharmaceuticals B.V., using well documented standard procedures. Affinity for 5-HT1A receptors for instance, was determined by testing the ability of the compounds of the invention to displace [^3H]-2-(di-n-propylamino)-8-hydroxytetralin ([^3H]-8-OH-DPAT) from its specific binding sites in rat frontal cortex homogenates. This test is based on the method described by Gozlan et al. (Nature, 305, (1983), pages 140-142).
(§2) The binding data collected in the table below were either obtained by CEREP (128, rue Danton, 92500 Rueil-Malmaison, France) or at Solvay Pharmaceuticals B.V., using well documented standard procedures.

For a further data set, the target named is LTB4 (Cavia porcellus, UniProt H0VYV8). The data set is described as follows: Receptor binding LTB4. The following applies: radioligand [3H]-LTB4; guinea pig; read-out: Ki(nM) Compound 1. As for the experimental part: as §1, §2
For the next data set, the target named is Galanin-GAL1 (Homo sapiens, UniProt P47211). Description: Receptor binding Galanin-GAL1. The conditions noted are these: radioligand [125I]-galanin, read-out: Ki(nM) Compound 1. As to the method:
as §1, §2

In another data set the target is Histamine-H3 (Rattus norvegicus, UniProt Q9QYN8). The data set is described as follows: Receptor binding Histamine-H3. The conditions noted are these: radioligand [3H]-α-methylhistamine, read-out: Ki(nM) Compound 1. As to the method:
as §1, §2

The next data set addresses Interleukine-6 (Homo sapiens, UniProt P08887). The data set is described as follows: Receptor binding Interleukine-6. The following applies: radioligand [125I]-interleukine-6, read-out: Ki(nM) Compound 1. As for the experimental part: as §1, §2
For the next data set, the target named is Prostaglandin-I2 (Homo sapiens, UniProt P43119). Description: Receptor binding Prostaglandin-I2. The following applies: radioligand [3H]-iloprost, read-out: Ki(nM) Compound 1. As for the experimental part: as §1, §2
A further data set deals with CCKA (Homo sapiens, UniProt P32238). Description: Receptor binding CCKA. The conditions noted are these: radioligand [3H]-devazepide, read-out: Ki(nM) Compound 1. As for the experimental part: as §1, §2
The target of another data set is κ-opiate (Rattus norvegicus, UniProt P34975). Description: Receptor binding κ-opiate. The following applies: radioligand [3H]-U 69593, read-out: Ki(nM) Compound 1. As to the method:
as §1, §2

The target of the next data set is Glycine strychn. insens. (Rattus norvegicus, UniProt P35439). Description: Receptor binding Glycine strychn. insens. The conditions noted are these: radioligand [3H]-MDL105519, read-out: Ki(nM) Compound 1. As for the experimental part: as §1, §2
Setting [1] is: dose of Compound 1 0.3 mg/kg i.p.
Setting [2] is: dose of Compound 1 3 mg/kg i.p.
Where [3] appears, read: dose of Compound 1 10 mg/kg i.p.
Where [4] appears, read: dose of Compound 1 15 mg/kg i.p.
Setting [5] is: dose of Compound 1 20 mg/kg i.p.

A value given as a limit tells only on which side of the number the result lay.

Chain of 5-HT1B (P28564 whole entry): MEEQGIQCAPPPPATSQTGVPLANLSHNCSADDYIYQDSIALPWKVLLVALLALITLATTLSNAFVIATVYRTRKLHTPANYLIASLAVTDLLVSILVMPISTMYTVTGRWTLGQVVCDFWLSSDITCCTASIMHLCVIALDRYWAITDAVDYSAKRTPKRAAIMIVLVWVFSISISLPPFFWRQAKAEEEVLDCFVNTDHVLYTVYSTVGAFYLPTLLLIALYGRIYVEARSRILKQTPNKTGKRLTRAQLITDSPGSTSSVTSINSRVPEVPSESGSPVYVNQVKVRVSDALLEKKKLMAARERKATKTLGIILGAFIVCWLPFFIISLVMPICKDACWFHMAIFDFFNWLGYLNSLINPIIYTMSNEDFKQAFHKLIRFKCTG
Chain of CCKA (P32238 whole entry): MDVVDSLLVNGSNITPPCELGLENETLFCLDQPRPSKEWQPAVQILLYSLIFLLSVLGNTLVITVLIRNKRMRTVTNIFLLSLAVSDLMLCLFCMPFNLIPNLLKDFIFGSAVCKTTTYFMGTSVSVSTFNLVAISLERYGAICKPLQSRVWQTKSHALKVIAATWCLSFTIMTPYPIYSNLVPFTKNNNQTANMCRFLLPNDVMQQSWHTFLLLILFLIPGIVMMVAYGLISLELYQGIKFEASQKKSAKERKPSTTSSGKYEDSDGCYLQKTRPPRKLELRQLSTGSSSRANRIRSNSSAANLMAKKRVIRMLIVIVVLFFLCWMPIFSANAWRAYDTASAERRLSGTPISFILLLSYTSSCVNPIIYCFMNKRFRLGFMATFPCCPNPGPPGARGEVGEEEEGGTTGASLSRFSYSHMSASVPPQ
Chain of Histamine-H3 (Q9QYN8 whole entry): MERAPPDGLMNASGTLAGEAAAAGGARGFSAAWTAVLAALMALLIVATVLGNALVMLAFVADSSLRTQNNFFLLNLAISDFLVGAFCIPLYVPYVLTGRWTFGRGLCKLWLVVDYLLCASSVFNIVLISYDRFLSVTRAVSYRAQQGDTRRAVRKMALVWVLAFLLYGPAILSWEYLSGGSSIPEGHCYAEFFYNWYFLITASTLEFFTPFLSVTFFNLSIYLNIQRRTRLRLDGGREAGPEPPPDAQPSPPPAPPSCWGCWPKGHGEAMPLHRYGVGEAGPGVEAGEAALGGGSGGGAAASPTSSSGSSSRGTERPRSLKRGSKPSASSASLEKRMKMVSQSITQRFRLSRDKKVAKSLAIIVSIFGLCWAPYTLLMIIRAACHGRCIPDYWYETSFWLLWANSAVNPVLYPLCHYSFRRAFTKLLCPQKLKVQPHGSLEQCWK
Chain of Interleukine-6 (P08887 20-468): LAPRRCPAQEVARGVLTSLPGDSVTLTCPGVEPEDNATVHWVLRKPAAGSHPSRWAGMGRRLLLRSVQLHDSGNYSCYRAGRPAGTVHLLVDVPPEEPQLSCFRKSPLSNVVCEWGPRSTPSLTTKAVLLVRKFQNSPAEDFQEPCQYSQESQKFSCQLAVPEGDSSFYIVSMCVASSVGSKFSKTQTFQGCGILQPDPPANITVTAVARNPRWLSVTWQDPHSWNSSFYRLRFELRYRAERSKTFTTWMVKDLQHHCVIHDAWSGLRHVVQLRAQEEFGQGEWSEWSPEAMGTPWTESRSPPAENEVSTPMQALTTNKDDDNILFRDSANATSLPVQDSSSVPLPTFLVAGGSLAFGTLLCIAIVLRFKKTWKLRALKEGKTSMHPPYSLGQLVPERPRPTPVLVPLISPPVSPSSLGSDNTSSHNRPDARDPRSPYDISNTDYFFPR
Chain of LTB4 (H0VYV8 1-348): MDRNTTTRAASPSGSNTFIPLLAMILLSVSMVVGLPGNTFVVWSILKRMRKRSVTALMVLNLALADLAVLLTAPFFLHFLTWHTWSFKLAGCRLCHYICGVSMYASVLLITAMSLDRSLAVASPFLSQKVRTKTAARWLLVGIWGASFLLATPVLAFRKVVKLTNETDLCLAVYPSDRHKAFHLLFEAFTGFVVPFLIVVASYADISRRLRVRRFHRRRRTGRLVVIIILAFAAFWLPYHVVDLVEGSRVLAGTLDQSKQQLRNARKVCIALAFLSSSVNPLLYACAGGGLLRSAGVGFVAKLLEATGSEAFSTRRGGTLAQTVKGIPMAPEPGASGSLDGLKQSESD
Chain of Galanin-GAL1 (P47211 whole entry): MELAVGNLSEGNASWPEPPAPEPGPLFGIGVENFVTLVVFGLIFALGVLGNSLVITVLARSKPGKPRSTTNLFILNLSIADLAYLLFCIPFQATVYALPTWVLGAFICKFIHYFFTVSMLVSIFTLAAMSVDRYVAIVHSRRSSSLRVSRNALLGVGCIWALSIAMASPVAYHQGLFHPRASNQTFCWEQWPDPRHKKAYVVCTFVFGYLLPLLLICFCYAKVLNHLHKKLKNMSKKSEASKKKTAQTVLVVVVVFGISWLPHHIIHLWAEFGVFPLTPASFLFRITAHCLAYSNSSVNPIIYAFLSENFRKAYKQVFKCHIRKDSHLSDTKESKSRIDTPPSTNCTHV
Chain of Prostaglandin-I2 (P43119 whole entry): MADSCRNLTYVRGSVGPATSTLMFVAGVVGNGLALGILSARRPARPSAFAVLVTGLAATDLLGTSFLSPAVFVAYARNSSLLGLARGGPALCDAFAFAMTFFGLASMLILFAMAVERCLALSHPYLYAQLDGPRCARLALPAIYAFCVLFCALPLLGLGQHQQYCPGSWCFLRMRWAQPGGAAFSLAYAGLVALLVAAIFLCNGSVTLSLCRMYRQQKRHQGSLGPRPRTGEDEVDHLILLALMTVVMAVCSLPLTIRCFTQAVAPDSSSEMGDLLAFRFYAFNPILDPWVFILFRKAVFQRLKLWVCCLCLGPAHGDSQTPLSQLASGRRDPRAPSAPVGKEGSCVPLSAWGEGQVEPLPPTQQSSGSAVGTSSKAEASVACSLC
Chain of κ-opiate (P34975 whole entry): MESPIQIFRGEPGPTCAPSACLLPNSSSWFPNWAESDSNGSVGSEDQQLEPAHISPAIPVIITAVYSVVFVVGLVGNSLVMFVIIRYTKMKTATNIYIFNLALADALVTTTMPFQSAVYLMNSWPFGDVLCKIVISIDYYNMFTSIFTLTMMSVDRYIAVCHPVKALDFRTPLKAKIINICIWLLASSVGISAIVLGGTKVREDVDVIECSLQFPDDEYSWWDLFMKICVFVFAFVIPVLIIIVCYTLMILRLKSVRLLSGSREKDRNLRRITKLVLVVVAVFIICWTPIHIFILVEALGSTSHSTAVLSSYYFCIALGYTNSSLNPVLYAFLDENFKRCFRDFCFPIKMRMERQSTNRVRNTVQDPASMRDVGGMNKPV

In general, Ki refers to the equilibrium dissociation constant of an inhibitor or competing ligand from its target. In the case of `Nc1cc2cccc(N3CCNCC3)c2oc1=O` [Compound 1, 3-amino-8-(1-piperazinyl)-2H-1-benzopyran-2-one], the “Percentage of animal response, Clonic seizures” value is on record as 90% in the data set on DBA/2 mice (setting [1]); 80% in the data set on DBA/2 mice (setting [2]); 40% with DBA/2 mice (setting [3]); 20% in the data set on DBA/2 mice (setting [4]); 10% in the data set with DBA/2 mice (setting [5]). Also, the “Percentage of animal response, Tonic extension” value with DBA/2 mice (setting [1]) was 60%; in the data set on DBA/2 mice (setting [2]) it was 40%; with DBA/2 mice (setting [3]), 0%; in the data set with DBA/2 mice (setting [4]), 0%; in the data set on DBA/2 mice (setting [5]), 0%. Moreover, in the data set on DBA/2 mice (i.p., all dosages tested), the behavioural changes result was “At none of the dosages tested”. Also, the Ki was 2 nM on 5-HT1B; over 10000 nM at LTB4; over 1000 nM at Galanin-GAL1; over 10000 nM at Histamine-H3; over 10000 nM on Interleukine-6; over 1000 nM on Prostaglandin-I2. Also, the Ki was over 1000 nM at CCKA, over 1000 nM on κ-opiate and over 10000 nM on Glycine strychn. insens..
